Values of other authors as cited in patent US6770262B2, “Nasal administration of agents for the treatment of gastroparesis” (priority 2000, dated 2004).
Where two headings read alike, the source gives them in different places.

Conditions: for onset of action: injection form

- time of peak plasma concentrations (after a single oral dose): 1 to 2 h
SMILES: CCN(CC)CCNC(=O)c1cc(Cl)c(N)cc1OC [Metoclopramide]
- onset of action (intramuscular administration): 10 to 15 min
- onset of action (intravenous administration): 1 to 3 min
